B1: recombinant human BMP4 protein: BMP protein, a substance acting on the BMP signal transduction pathway (protein, UniProt P12644 293-408, looked up)
Bone morphogenetic protein 4: SPKHHSQRARKKNKNCRRHSLYVDFSDVGWNDWIVAPPGYQAFYCHGDCPFPLADHLNSTNHAIVQTLVNSVNSSIPKACCVPTELSAISMLYLDEYDKVVLKNYQEMVVEGCGCR

Test system: Human ES cells (KhES-1-derived)
Experiment: Adhesion culture of cells dispersed from human ES cell-derived aggregates with added factors; level of epithelial formation observed under a microscope (Example 5)
Assay type: cell-based
Details: observed at day 40, compared to the control free of the addition
Description: Human ES cells (KhES-1-derived) were cultured according to the methods described in “Ueno, M. et al. PNAS 2006, 103(25), 9554-9559” and “Watanabe, K. et al. Nat Biotech 2007, 25, 681-686”. As the medium, a medium obtained by adding 20% KSR KNOCKOUT™ Serum Replacement; Invitrogen), 0.1 mM 2-mercaptoethanol, 2 mM L-glutamine, 1× non-essential amino acid, 5 ng/ml bFGF to DMEM/F12 medium (Sigma) was used. The cultured ES cells were dispersed into single cells using TrypLE Express (Invitrogen), and the above-mentioned cultured ES cells were suspended in 100 μl of a serum-free medium at 1.2×10^4 cells per one well of a non-cell adhesive 96 well culture plate (sumilon spheroid plates, SUMITOMO BAKELITE Co., Ltd.) to allow for rapid formation of aggregates and subjected to culture at 37° C., 5% CO2. As the serum-free medium therefor, a serum-free medium obtained by adding 10% KSR, 450 μM 1-monothioglycerol, 1× Chemically defined lipid concentrate, 20 μM Y27632 to a 1:1 mixture of F-12 medium and IMDM medium was used. At day 3 from the start of the floating culture, BMP4 was added al a concentration 1.5 nM, and floating culture was continued. A half amount of the culture medium in the well was exchanged every 3 days with the above-mentioned medium not supplemented with a substance acting on the BMP signal transduction pathway. […]

Molecule | level of epithelial formation (pigmentation of retinal pigment epithelial cells) (3 μM added at day 24 from the start of the floating culture, FIG. 5B) | level of epithelial formation (uniformity of epithelium) (1 nM added at day 24, FIG. 5E)
Cc1c[nH]c(-c2cnc(NCCNc3ccc(C#N)cn3)nc2-c2ccc(Cl)cc2Cl)n1 [CHIR99021] | differentiated into darker retinal pigment epithelial cells | 
B1 |  | more uniform epithelium

From patent publication US10760050B2, “Method for producing retinal pigment epithelial cells” (SUMITOMO CHEMICAL COMPANY, LIMITED, priority 2013, dated 2020)
